Where two headings read alike, the source gives them in different places.
Tests used:
CFTR channel [1] = biological target: T1, CFTR channel (Homo sapiens, UniProt P13569); assay: Efflux of radioactive iodide in recombinant CHO (CFTR+) cells; type: cell-based; set-up: expressed in transfected cells; host or cells: CHO-K1 cells, vector pNUT; conditions: for activation at 500 µM: read-out: % activation relative to control; for effect on the efflux of iodide / CFTR channel activation: 500 μM
Description: (§1) Several types of cells are used for this study: the intestinal lines T84, Caco-2 and HT 29. Chinese hamster ovary (CHO-K1) cells were transfected with the aid of the vector pNUT (Tabcharani et al., 1991) with or without (control cells) incorporation of normal or mutated CFTR cDNA (Chang et al., 1993). The cells are kept in this specific medium and then inoculated at a low density on to glass slides and cultured at 37° C. (5% CO2), before the patch clamping experiments. The survival medium of the cells is composed of αMEM with foetal calf serum (7%) and antibiotics: 50 IU/ml penicillin and 50 μg/ml streptomycin and methotrexate (100 μM to 200 μM).
(§2) This technique enables the kinetics of the exit of iodide to be monitored. The cells are cultured in 12-well plates with a dilution to 1/10 after passage. On day 3, the drugs to be tested are dissolved in medium B (37° C.) according to the required concentration. The wells are washed twice with 1 ml of medium B NaOH, 0.1% glucose, which is then replaced by 1 ml of charging solution for 30 min.
(§3) The operation is repeated over 10 min and the cells are then detached with 1 ml of NaOH 0.1N SDS 0.1%. The contents of each well are collected in a haemolysis tube after agitation for 25 min, and the tubes are counted for 2 min in a gamma counter.
(§4) The study relates to molecules of the benzoquinolizinium family described above. They are tested for their ability to activate the CFTR channel. Screening of molecules as openers of the CFTR channel was carried out by measuring their effect on the efflux of radioactive iodide and on the transmembrane chloride currents (Becq et al., 1993a).
2) CHO cell: efflux of radioactive iodide in
CHO cells transfected with the CFTR chain (labelled CHO-CFTR (+) on FIG. 2B) in the presence or absence of the abovementioned activators.

CHO (CFTR−) cells = assay: Efflux of radioactive iodide in control CHO (CFTR−) cells not transfected with CFTR; type: cell-based, Chinese hamster
Description: CHO cells which have not been transfected with the protein CFTR (labelled CHO-CFTR (−) on FIG. 2 B) in the presence or absence of the abovementioned activators:

intracellular cAMP = assay: Level of intracellular cAMP in recombinant CHO cell; type: cell-based, Chinese hamster; conditions: after 5 min
Description: as §4
FIG. 12: Histograms representing the levels of cAMP (measured in nmol per mg of protein) in the CHO cells which have been transfected with the CFTR gene and have not been activated (basal), or have been activated by forskoline (forskoline), or have been activated by rolipram (rolipram), or have been activated by MPB-07 (MPB-07).

CFTR channel [2] = biological target: T1, CFTR channel; assay: Patch clamping, CFTR channel activation; type: cell-based; set-up: expressed in transfected cells; host or cells: CHO-K1 cells, vector pNUT; conditions: rolipram
Description: The patch clamping experiments are carried out on confluent cells. A fragment of the glass slide (cell support) is placed in an experimental chamber (volume 600 μl or 1 ml) on the platen of an inverted microscope fitted with phase contrast illumination (Olympus IMT2). The cell-attached and inside-out configurations are used (Hamill et al., 1981). The experiments are carried out at room temperature (20-22° C.). The currents are amplified with a LIST EPC 7 amplifier (Darmstadt, Germany) (filter of 3 kHz) with a low-pass filter of 2-5 kHz (6-pole Bessel filter) and recorded with a DAT (digital audio tape) after digitalization (16 bits) at 44 kHz. The data are then transferred to an Olivetti M28PC computer. The pipettes are made from glass tubes of 1 mm diameter (Clarke Electromedical Instrument) in two or three stages with a horizontal drawer (Flaming/Brown type, model P-87. Sutter. Inst. Co. USA). The pipettes filled with a solution of 150 mM NaCI have a resistance of between 4 and 12 MΩ. The potentials are expressed as the difference between the potential of the patch electrode and that of the bath. […] The diffusion potentials are evaluated from the potential of the electrode corresponding to a zero current (when the channels are closed). […] To determine the current-voltage ratio, the ionic current amplitudes are measured form amplitude histograms. […]

CFTR channel [3] = biological target: T1, CFTR channel; assay: Efflux of radioactive iodide in Xenopus ovocyte injected with cRNA-CFTR; type: cell-based; conditions: Xenopus ovocyte expressing CFTR, 500 μM
CFTR channel [4] = biological target: T1, CFTR channel; assay: Efflux of radioactive iodide in HT29 cells; type: cell-based; set-up: the human colon cell of the line HT29 which expresses the protein CFTR constitutively; endogenous in cells; host or cells: HT29 human colon cells; conditions: 500 μM
Description: as §1, §2, §3

[5] = efflux of iodide, recombinant CHO (CFTR+) cell, MPB and phenanthrene 500 μM

T1 sequence (P13569 whole entry): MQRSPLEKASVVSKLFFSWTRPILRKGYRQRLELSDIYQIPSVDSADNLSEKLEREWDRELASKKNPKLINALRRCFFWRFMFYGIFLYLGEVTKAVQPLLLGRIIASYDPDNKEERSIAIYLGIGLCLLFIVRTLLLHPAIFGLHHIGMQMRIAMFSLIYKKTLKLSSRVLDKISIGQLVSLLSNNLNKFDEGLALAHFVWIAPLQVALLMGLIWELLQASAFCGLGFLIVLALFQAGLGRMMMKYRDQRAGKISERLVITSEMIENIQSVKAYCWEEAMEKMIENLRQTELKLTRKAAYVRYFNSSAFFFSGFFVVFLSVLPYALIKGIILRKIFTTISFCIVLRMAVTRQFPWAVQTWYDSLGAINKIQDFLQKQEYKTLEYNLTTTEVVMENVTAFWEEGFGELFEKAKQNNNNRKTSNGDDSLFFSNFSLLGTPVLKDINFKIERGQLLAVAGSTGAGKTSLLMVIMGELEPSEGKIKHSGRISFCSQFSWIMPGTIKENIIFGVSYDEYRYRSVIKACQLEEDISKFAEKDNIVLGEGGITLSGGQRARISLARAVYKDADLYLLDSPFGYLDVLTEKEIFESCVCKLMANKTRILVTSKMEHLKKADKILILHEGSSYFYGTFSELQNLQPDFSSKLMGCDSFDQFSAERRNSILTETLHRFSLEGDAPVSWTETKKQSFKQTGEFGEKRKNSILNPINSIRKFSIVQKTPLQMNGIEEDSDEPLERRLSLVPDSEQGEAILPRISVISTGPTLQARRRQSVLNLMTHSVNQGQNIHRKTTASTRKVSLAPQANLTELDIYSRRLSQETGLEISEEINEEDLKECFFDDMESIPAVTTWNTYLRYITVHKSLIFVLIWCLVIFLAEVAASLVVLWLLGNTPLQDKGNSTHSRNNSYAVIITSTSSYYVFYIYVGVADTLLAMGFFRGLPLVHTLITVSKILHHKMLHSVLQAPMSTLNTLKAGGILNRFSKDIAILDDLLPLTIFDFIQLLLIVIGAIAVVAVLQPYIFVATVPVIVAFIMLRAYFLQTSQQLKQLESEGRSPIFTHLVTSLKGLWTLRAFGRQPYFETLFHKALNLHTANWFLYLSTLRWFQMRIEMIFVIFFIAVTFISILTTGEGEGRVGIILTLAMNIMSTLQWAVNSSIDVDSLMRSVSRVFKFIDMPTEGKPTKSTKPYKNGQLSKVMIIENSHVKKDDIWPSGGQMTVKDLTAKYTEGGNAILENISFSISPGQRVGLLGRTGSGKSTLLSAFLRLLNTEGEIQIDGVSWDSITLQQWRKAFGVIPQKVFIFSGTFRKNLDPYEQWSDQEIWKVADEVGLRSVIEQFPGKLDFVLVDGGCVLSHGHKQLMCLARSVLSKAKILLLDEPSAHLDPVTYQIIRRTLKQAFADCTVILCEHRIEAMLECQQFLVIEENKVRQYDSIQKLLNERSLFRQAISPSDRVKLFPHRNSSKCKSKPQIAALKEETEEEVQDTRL

Molecule: Oc1cc2ccccc2c2ccccc12 [MPB-25]
- activation at 500 µM (CFTR channel [1]): 25%

Molecule: C=C[C@@]1(C)CC(=O)[C@]2(O)[C@@]3(C)[C@@H](O)CCC(C)(C)[C@@H]3[C@H](O)[C@H](OC(C)=O)[C@@]2(C)O1 [forskoline]
- effect on the basal level of the efflux of iodide (CHO (CFTR−) cells; 5 μM): do not significantly modify the basal level of the efflux of iodide
- effect on cAMP, multiplication factor (intracellular cAMP; 5 μM): about 4
- % activation relative to control (CFTR channel [1]; efflux of iodide, recombinant CHO (CFTR+) cell, forskoline 5 μM): 109%

Molecule: 6-Hydroxbenzo[c]quinolizinium Bromide [MPB-06]
- % activation relative to control (CFTR channel [1]; [5]): 53%

Molecule: Nc1cc2cccc[n+]2c2cc(Cl)ccc12 [MPB-03, 6-Amino, 9-Chlorobenzo[c]quinolizinium Chloride]
- activation at 500 µM (CFTR channel [1]; [5]): 18%

Molecule: Nc1cc2ccccc2c2ccccc12 [MPB-24]
- activation at 500 µM (CFTR channel [1]): 18%

Molecule: CNc1ccc2oc(C[C@H]3O[C@@]4(CC[C@H]3C)O[C@H]([C@H](C)C(=O)c3ccc[nH]3)[C@H](C)C[C@H]4C)nc2c1C(=O)O [Compound A23187, reference compound]
- effect on the basal level of the efflux of iodide (CHO (CFTR−) cells; 10 μM): do not significantly modify the basal level of the efflux of iodide
- effect on the efflux of iodide (CFTR channel [1]; CHO (CFTR+) cells, 10 μM): has no effect

Molecule: Nc1cc2cccc[n+]2c2ccccc12 [MPB-26, 6-Aminobenzo[c]quinolizium]
- % activation relative to control (CFTR channel [1]; [5]): 30%

Molecule: Oc1cc2cccc[n+]2c2ccccc12 [MPB-05, 6-Hydroxybenzo[c]quinolizinium Chloride]
- activation at 500 µM (CFTR channel [1]; [5]): 20%

Molecule: COc1ccc(C2CNC(=O)C2)cc1OC1CCCC1 (centres unmarked) [rolipram]
- effect as a CFTR activator measured by patch clamping (CFTR channel [2]): has no effect as a CFTR activator
- level of cell cAMP (intracellular cAMP; 10 μM): The same level of cAMP is reached in the presence of the compounds MPB-07 and rolipram
- effect as a CFTR activator measured by the flow of iodide (CFTR channel [1]; rolipram): has no effect as a CFTR activator

Molecule: Oc1cc2cccc[n+]2c2cc(Cl)ccc12 [MPB-08, 6-Hydroxy, 9-Chlorobenzo[c]quinolizinium Chloride]
- activation at 500 µM (CFTR channel [1]; [5]): 22%

Molecule: Oc1cc2cccc[n+]2c2c(Cl)cccc12.[Cl-] [MPB-07, 6-Hydroxy, 10-Chlorobenzo[c]quinolizinium Chloride]
- effect on the efflux of iodide (CFTR channel [3]): stimulates the efflux of iodide
- effect on the basal level of the efflux of iodide (CHO (CFTR−) cells; 500 μM): do not significantly modify the basal level of the efflux of iodide
- level of cell cAMP (intracellular cAMP; 500 μM): The same level of cAMP is reached in the presence of the compounds MPB-07 and rolipram
- effect on the efflux of iodide (CFTR channel [4]): triggers an efflux of iodide, with a similar rate and amplitude, which is increased with respect to the basal level
- effect on the efflux of iodide / CFTR channel activation (CFTR channel [1]; CHO (CFTR+) cells): comparable in intensity and rate to that induced by forskoline (5 μM)
- activation at 500 µM (CFTR channel [1]; [5]): 110%

Molecule: Oc1cc2cccc[n+]2c2cccc(Cl)c12 [MPB-27, 6-Hydroxy, 7-Chlorobenzo[c]quinolizinium Chloride]
- activation at 500 µM (CFTR channel [1]; [5]): 95%

Molecule: Nc1ncnc2c1nc(Sc1ccc(Cl)cc1)n2[C@@H]1O[C@@H]2COP(=O)(O)O[C@H]2[C@H]1O [c-cpt-AMP, cyclic 8-(4-chlorophenylthio)-adenosine 3′,5′-monophosphate]
- effect on the basal level of the efflux of iodide (CHO (CFTR−) cells; 500 μM): has no effect

Molecule: Nc1cc2cccc[n+]2c2cccc(Cl)c12 [MPB-04, 6-Amino, 7-Chlorobenzo[c]quinolizinium Chloride]
- activation at 500 µM (CFTR channel [1]; [5]): 11%

Molecule: c1ccc2c(c1)ccc1ccccc12 [phenanthrene, reference compound]
- effect on the efflux of iodide / CFTR channel activation (CFTR channel [1]; CHO (CFTR+) cells): does not activate the CFTR channel
- activation at 500 µM (CFTR channel [1]; [5]): < 5%

Reference: patent US6630482B1, “CFTR channel activator compounds and pharmaceutical compositions containing same” (Centre National de la Recherche Scientifique, priority 1996, dated 2003)
